Measurements: patent US20120132797A1, “MEANS AND METHODS FOR DIAGNOSING THYROID DISORDERS” (BASF SE, priority 2009, published 2012)
Several values for one entry are separate records, joined by “and”; a condition that tells them apart may be missing. Equal entries are not always repeated.

System: Wistar (Crl:WI(Han)) rats
Experiment: Mass spectrometry-based plasma metabolite profiling of rats treated with known inducers of thyroid function impairment
Format: in vivo, rat
Conditions: ratio of group medians vs controls
Description: At the beginning of the study the animals were 10-11 weeks old. Each dose group in the studies consisted of five rats per sex, and was compared with controls (10 rats per sex). […] The dose levels were chosen to show the typical overt (high dose) and slight (low dose) toxicological symptoms of the substances as described in the literature or in BASF internal study reports.
Blood samples were withdrawn from the retro-orbital sinus in all rats under isoflurane anesthesia on study days 7, 14 and 28 after a fasting period of 16-20 hours.
For mass spectrometry-based metabolite profiling analysis, plasma samples were extracted by a proprietary method which delivers a polar and a non-polar fraction. For GC-MS analysis, the non-polar fraction was treated with methanol under acidic conditions to yield the fatty acid methyl esters. Both fractions were further derivatised with Omethyl-hydroxyamine hydrochloride and pyridine to convert oxo groups to Omethyloximes and subsequently with a silylating agent before analysis.
In LC-MS/MS analysis, both fractions were reconstituted in appropriate solvent mixtures. HPLC was performed by gradient elution on reversed phase separation columns. For mass spectrometric detection metanomics proprietary technology was applied, which allows target and high sensitivity MRM (Multiple Reaction Monitoring) profiling in parallel to a full screen analysis. […] Moreover, several hundred additional analytes giving a fingerprint of the sample were included in the methods.
Following comprehensive analytical validation steps, the data for each analyte were normalized against data from pool samples. These samples were run in parallel through the whole process to account for process variability.
The sex- and day-stratified heteroscedastic t-test (“Welch test”) was applied to compare treated groups with respective controls. p-Values and ratios of corresponding group medians were collected as metabolic profiles and fed into a database.

[1] = female rats, fh7 (study day 7), Table 1
[2] = female rats, fh14 (study day 14), Table 1
[3] = female rats, fh28 (study day 28), Table 1
[4] = male rats, mh7 (study day 7), Table 2
[5] = male rats, mh14 (study day 14), Table 2
[6] = male rats, mh28 (study day 28), Table 2
[7] = male rats, mh7 (study day 7), Table 4
[8] = male rats, mh14 (study day 14), Table 4
[9] = male rats, mh28 (study day 28), Table 4

S=C1NCCN1 [Ethylenethiourea] was tested, and the 5-O-Methylsphingosine [1] was 1.29 and 1.20, the Asparagine [1] was 1.06 and 1.35 and the “Behenic acid (C22:0)” value [1] was 1.48 and 1.27. For the same compound, the Citrate [1] was 0.89 and 0.78, the “Docosahexaenoic acid (C22:cis[4,7,10,13,16]6)” value (“Docosahexaenoic acid” below) [1] was 1.12 and 1.29 and the Glycine [1] was 1.21 and 1.09. For the same compound, the Ketoleucine [1] was 0.93 and 0.84, the “Lysophosphatidylcholine (C18:2)” value [1] was 1.08 and the “Phosphatidylcholine (C16:1, C18:2)” value [1] was 1.43 and 1.26. The “Phosphatidylcholine (C18:2, C20:4)” value [1] was 1.09 and 1.02, the Pyruvate [1] was 1.29 and 0.74 and the “Tricosanoic acid (C23:0)” value [1] was 1.38 and 1.44. For the same compound, the erythro-Sphingosine [1] was 1.46 and 1.39, the threo-Sphingosine [1] was 1.35 and 1.58 and the “Sphingomyelin (d18:1, C16:0)” value (female rats, fh7 (study day 7), Table 1, first listing) was 1.71 and 1.62. For the same compound, the “Sphingomyelin (d18:1, C16:0)” value (female rats, fh7 (study day 7), Table 1, second listing) was 1.29 and 1.46, the 5-O-Methylsphingosine [2] was 1.56 and 1.59 and the Asparagine [2] was 1.31 and 1.27. The “Behenic acid (C22:0)” value [2] was 1.29 and 1.69, the Citrate [2] was 0.85 and 0.86 and the “Docosahexaenoic acid” value [2] was 1.45 and 1.24. The Glycine [2] was 1.24 and 1.18, the Ketoleucine [2] was 0.84 and 0.82 and the “Lysophosphatidylcholine (C18:2)” value [2] was 1.19 and 1.17. For the same compound, the “Phosphatidylcholine (C16:1, C18:2)” value [2] was 1.43 and 1.54, the “Phosphatidylcholine (C18:2, C20:4)” value [2] was 1.15 and 1.09 and the Pyruvate [2] was 0.79 and 1.14. For the same compound, the “Tricosanoic acid (C23:0)” value [2] was 1.52 and 1.30, the erythro-Sphingosine [2] was 1.71 and 1.98 and the threo-Sphingosine [2] was 1.47 and 1.61. For the same compound, the “Sphingomyelin (d18:1, C16:0)” value (female rats, fh14 (study day 14), Table 1, first listing) was 1.43 and 1.55, the “Sphingomyelin (d18:1, C16:0)” value (female rats, fh14 (study day 14), Table 1, second listing) was 1.06 and 1.34 and the 5-O-Methylsphingosine [3] was 1.63 and 1.59. For the same compound, the Asparagine [3] was 1.26 and 0.84, the “Behenic acid (C22:0)” value [3] was 1.69 and 1.27 and the Citrate [3] was 0.70 and 0.91. The “Docosahexaenoic acid” value [3] was 1.22 and 1.11, the Glycine [3] was 1.32 and 1.01 and the Ketoleucine [3] was 0.88 and 0.74. For the same compound, the “Lysophosphatidylcholine (C18:2)” value [3] was 1.10 and 1.23, the “Phosphatidylcholine (C16:1, C18:2)” value [3] was 1.41 and 1.30 and the “Phosphatidylcholine (C18:2, C20:4)” value [3] was 1.06 and 1.04. For the same compound, the Pyruvate [3] was 0.69 and 1.04, the “Tricosanoic acid (C23:0)” value [3] was 1.42 and 1.05 and the erythro-Sphingosine [3] was 1.51 and 1.35. The threo-Sphingosine [3] was 1.51 and 1.26, the “Sphingomyelin (d18:1, C16:0)” value (female rats, fh28 (study day 28), Table 1, first listing) was 1.70 and 1.38 and the “Sphingomyelin (d18:1, C16:0)” value (female rats, fh28 (study day 28), Table 1, second listing) was 1.16 and 1.07. It also gave a 3-O-Methylsphingosine [4] of 2.26, a 5-O-Methylsphingosine [4] of 2.36 and a 14-Methyl-Pentadecanoic acid [4] of 0.98. It also gave a 17-Methyloctadecanoic acid [4] of 0.97, an Arginine [4] of 1.24 and a Cholesterol [4] of 1.74. The Citrate [4] was 0.86, the “Dihom-gamma-Linolenic acid (C20:cis[8,11,14]3)” value (from here on “Dihom-gamma-Linolenic acid”) [4] was 2.34 and the “Lignoceric acid (C24:0)” value [4] was 1.94. For the same compound, the Phytosphingosine [4] was 1.53, the “Sphingomyelin (d18:1, C16:0)” value [4] was 1.65 and the “Tricosanoic acid (C23:0)” value [4] was 1.67. The alpha-Tocopherol [4] was 2.58, the erythro-Sphingosine [4] was 2.06 and the threo-Sphingosine [4] was 2.05. For the same compound, the Glutamate (male rats, mh7 (study day 7), Table 2, first listing) was 1.07, the Glutamate (male rats, mh7 (study day 7), Table 2, second listing) was 1.15 and the 3-O-Methylsphingosine [5] was 2.34. It also gave a 5-O-Methylsphingosine [5] of 2.37, a 14-Methyl-Pentadecanoic acid [5] of 0.96 and a 17-Methyloctadecanoic acid [5] of 0.83. For the same compound, the Arginine [5] was 1.30, the Cholesterol [5] was 2.25 and the Citrate [5] was 0.81. The “Dihom-gamma-Linolenic acid” value [5] was 1.84, the “Lignoceric acid (C24:0)” value [5] was 1.66 and the Phytosphingosine [5] was 1.67. The “Sphingomyelin (d18:1, C16:0)” value [5] was 1.69, the “Tricosanoic acid (C23:0)” value [5] was 2.01 and the alpha-Tocopherol [5] was 2.99. The erythro-Sphingosine [5] was 2.06, the threo-Sphingosine [5] was 2.03 and the Glutamate (male rats, mh14 (study day 14), Table 2, first listing) was 0.73. It also gave a Glutamate (male rats, mh14 (study day 14), Table 2, second listing) of 0.82, a 3-O-Methylsphingosine [6] of 2.91 and a 5-O-Methylsphingosine [6] of 2.78. The 14-Methyl-Pentadecanoic acid [6] was 0.77, the 17-Methyloctadecanoic acid [6] was 0.89 and the Arginine [6] was 1.20. The Cholesterol [6] was 1.98, the Citrate [6] was 0.64 and the “Dihom-gamma-Linolenic acid” value [6] was 2.68. For the same compound, the “Lignoceric acid (C24:0)” value [6] was 2.07, the Phytosphingosine [6] was 2.17 and the “Sphingomyelin (d18:1, C16:0)” value [6] was 1.79. For the same compound, the “Tricosanoic acid (C23:0)” value [6] was 2.39, the alpha-Tocopherol [6] was 3.13 and the erythro-Sphingosine [6] was 2.29. The threo-Sphingosine [6] was 2.05, the Glutamate (male rats, mh28 (study day 28), Table 2, first listing) was 0.70 and the Glutamate (male rats, mh28 (study day 28), Table 2, second listing) was 0.77.

In the case of Cc1cccc(C)c1N(Cn1cccn1)C(=O)CCl [Metazachlor], the “Behenic acid (C22:0)” value [7] is reported as 1.92, the Cholesterol [7] is reported as 1.71 and the Citrate [7] is reported as 0.99. The Cytosine [7] was 0.64, the “Galactose, lipid fraction” value [7] was 1.81 and the Glycerol phosphate [7] was 1.63. For the same compound, the Glycine [7] was 1.12, the “Lignoceric acid (C24:0)” value [7] was 1.60 and the Mannose [7] was 1.22. For the same compound, the “Nervonic acid C24:(cis[15]1)” value [7] was 3.17, the “Phospha-tidylcholine (C18:0, 18:2)” value [7] was 1.40 and the “Sphingomyelin (d18:1, C16:0)” value [7] was 2.54. For the same compound, the “Stearic acid (C18:0)” value [7] was 1.45, the Threonic acid [7] was 1.16 and the “dihomo-gamma-Linolenic acis (C20:cis[8,11,14]3)” value (shortened to “dihomo-gamma-Linolenic acis”) [7] was 2.41. The erythro-Sphingosine [7] was 2.31, the myo-Inositol-2-phosphate [7] was 2.17 and the threo-Sphingosine [7] was 2.05. For the same compound, the “Behenic acid (C22:0)” value [8] was 2.47, the Cholesterol [8] was 2.15 and the Citrate [8] was 0.94. The Cytosine [8] was 0.75, the “Galactose, lipid fraction” value [8] was 2.27 and the Glycerol phosphate [8] was 2.20. The Glycine [8] was 1.10, the “Lignoceric acid (C24:0)” value [8] was 2.38 and the Mannose [8] was 1.37. For the same compound, the “Nervonic acid C24:(cis[15]1)” value [8] was 4.00, the “Phospha-tidylcholine (C18:0, 18:2)” value [8] was 1.55 and the “Sphingomyelin (d18:1, C16:0)” value [8] was 2.36. The “Stearic acid (C18:0)” value [8] was 2.36, the Threonic acid [8] was 1.25 and the “dihomo-gamma-Linolenic acis” value [8] was 5.18. It also gave an erythro-Sphingosine [8] of 3.47, a myo-Inositol-2-phosphate [8] of 4.01 and a threo-Sphingosine [8] of 3.22. For the same compound, the “Behenic acid (C22:0)” value [9] was 2.05, the Cholesterol [9] was 2.43 and the Citrate [9] was 1.08. For the same compound, the Cytosine [9] was 0.66, the “Galactose, lipid fraction” value [9] was 2.57 and the Glycerol phosphate [9] was 2.36. For the same compound, the Glycine [9] was 1.26, the “Lignoceric acid (C24:0)” value [9] was 2.11 and the Mannose [9] was 1.46. For the same compound, the “Nervonic acid C24:(cis[15]1)” value [9] was 3.63, the “Phospha-tidylcholine (C18:0, 18:2)” value [9] was 1.51 and the “Sphingomyelin (d18:1, C16:0)” value [9] was 2.32. The “Stearic acid (C18:0)” value [9] was 2.59, the Threonic acid [9] was 1.36 and the “dihomo-gamma-Linolenic acis” value [9] was 3.36. For the same compound, the erythro-Sphingosine [9] was 3.68, the myo-Inositol-2-phosphate [9] was 2.79 and the threo-Sphingosine [9] was 3.54.
